Values after ≈ are worked out from the molar mass of the structure shown. Where two headings read alike, the source gives them in different places. Non-standard residues stand in square brackets, D forms with d. Residues, ends and D or L forms follow the SMILES beside them.
Tests used:
[1] = system: Escherichia coli; assay: microbe, parasite or virus in culture; format: cell-based
Procedure, shortened: (§1)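 Testing covers laboratory standard strains and clinical isolates, resistant bacteria among them, with ATCC quality-control strains. Each is multipoint-inoculated at 10^4CFU/point onto MH agar holding two-fold drug dilutions (0.03–128 μg/ml) and incubated 18 hours at 35° C.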

[2] = system: Pseudomonas aeruginosa; assay: microbe, parasite or virus in culture; format: cell-based
Procedure, shortened: as §1

[3] = system: Shigella; assay: microbe, parasite or virus in culture; format: cell-based
Procedure, shortened: as §1

[4] = system: Staphylococcus epidermidis; assay: microbe, parasite or virus in culture; format: cell-based
Procedure, shortened: as §1

[5] = system: candida krusei; assay: microbe, parasite or virus in culture; format: cell-based
Excerpt: • (1) Test strains: monilia albicans (candida albicans), candida glabrata, candida krusei, candida tropicalis, aspergillus fumigatus and flavous. (2) Quality control strains: candida krusei JLC30366 (ATCC6258). Antimicrobial peptides PL-13 (SEQ ID NO: 1) under test are supplied by Jiangsu ProteLight Pharmaceutical & Biotechnology Co., LTD. […] (1) The bacterial strains which preserved on PDA slant are respectively inoculated onto PDA plate and slant medium. Activation of bacterial strains is conducted at a humidity level of 60% and 25° C. (for aspergillus) or 37° C. (for candida). (2) 0.9% stroke-physiological saline solution comprising 0.5% Tween-80 is used to prepare bacterial suspension for experiment. Hemocytometer is utilized to adjust concentration of the bacterial suspension to 1-3×10^6 CFU/ml (0.5 McFarland units) to make stock solution in reserve at -20° C. During the sensitivity test, the RPMI-1640 liquid medium is diluted 1000 times to 1-3×10^3 CFU/ml. (3) The RPMI-1640 liquid is utilized as diluent to 10-fold dilute stock solution of peptides. […] The eleventh orifice is used as living control orifice, while the twelfth one as blank control. (4) The RPMI-1640 liquid is utilized as diluent to 10-fold dilute stock solution of FCZ and ICZ. […] Ditto for other operations.

[6] = RP-HPLC temperature profiling: hydrophobicity and self-association; format: physicochemical; details: for tR(min) 5° C. / tR(min) 80° C.: RP-HPLC temperature profiling; for PA (min), association parameter: maximal normalized retention time difference within 5-80° C., self-association ability; for tR(min) Max: maximal retention time during temperature profiling 5-80° C.; for ΔtR(X-Peptide C)(min) 5° C.: retention time difference to control peptide C at 5° C.; for ΔtR(X-Peptide C)(min) 5° C. / ΔtR(X-Peptide C)(min) 80° C.: relative hydrophobicity; for ΔtR(X-Peptide C)(min) 80° C.: retention time difference to control peptide C at 80° C.; for Hydrophobicity tR5: retention time in RP-HPLC at pH 2, 5° C.; for Hydrophobicity tR80: retention time in RP-HPLC at pH 2, 80° C.
Method: Peptides are analyzed on an Agilent 1200 series liquid chromatograph (Little Falls, Del.). Runs are performed on a Zorbax 300 SB-C8 column (150×4.6 mm I.D.; 5 μm particle size, 300 Å pore size) from Agilent Technologies using linear AB gradient (1% acetonitrile/min) and a flow rate of 1 ml/min, where solvent A is 0.05% aqueous TFA, pH 2 and solvent B is 0.05% TFA in acetonitrile.
We further use temperature profiling during RP-HPLC to determine the self-association ability of various analogs of PL-13 (SEQ ID NO: 1) which would occur through interaction of the non-polar faces of these amphipathic peptides α-helices. We use 50% TFE aqueous acetonitrile and hydrophobic conditions in the reversed-phase column (hydrophobic stationary phase and the hydrophobic organic solvent in the mobile phase) since the hydrophobic environment of a reversed-phase column also could induce α-helical structure. Since its introduction, the technique of RP-HPLC temperature profiling has been applied on several types of molecules, including cyclic β-sheet peptides, monomeric α-helices and α-helices that dimerize, as well as α-helices that dimerize to form coiled-coils. Although peptides are eluted from a reversed-phase column mainly by an adsorption/desorption mechanism, even a peptide strongly bound to a hydrophobic stationary phase will partition between the matrix and the mobile phase when the acetonitrile content becomes high enough during gradient elution. In summary, the mechanism is based on four assumptions: (i) at low temperature, just as an amphipathic α-helical peptide is able to dimerize in aqueous solution (through its hydrophobic, non-polar face), it will dimerize in solution during partitioning in reversed-phase chromatography; (ii) at higher temperatures, the monomer-dimer equilibrium favors the monomer as the dimer is disrupted; (iii) at sufficiently high temperatures, only monomer is present in solution; and (iv) peptide is always bound in its monomeric helical form to the hydrophobic stationary phase, i.e., the dimer can only be present in solution and disruption of the dimer is required for rebinding to the RP-HPLC matrix.
([θ]222=−3,950). Since peptide C is a monomeric random coil peptide in both aqueous and hydrophobic media, its retention behavior over the temperature range 5-80° C. represents only general temperature effects on peptide retention behavior, i.e., a linear decrease in peptide retention time with increasing temperature due to greater solute diffusivity and enhanced mass transfer between the stationary and mobile phases at higher temperatures. Thus, after normalization to the retention times of peptide C, the retention behavior of the peptides only represents peptide self-association ability. Note that the higher the PA value, the greater the self-association ability. The order of peptide self-association ability of the three pairs of peptide enantiomers is identical to the order of peptide hydrophobicity. Apart from the decrease in retention time due to the general temperature effects noted above, destruction of the α-helix will also occur with increasing temperature, resulting in reduced retention times as the peptides become increasingly random coils.
The retention time data for the peptides is shown in Table 6 which records retention times at 5° C., the maximal retention times and retention times at 80° C. during the temperature profiling. Temperatures of 5-80° C. are the lower and upper temperature limits of temperature profiling in RP-HPLC, representing polymerization of the peptides at 5° C. and the monomerization of peptides at 80° C. due to denaturation of peptides by high temperature and dissociation of the polymers. The maximal retention times represent the threshold points at which peptides totally transform from polymeric to monomeric form. […]

[7] = 08-17 (MSSE) Meticillin susceptible staphylococcus epidermidis
[8] = 08-18 (MRSE) Methicillin-resistant staphylococcus epidermidis
[9] = Pseudomonas aeruginosa TCC27853
[10] = strain 17 (listed under Pseudomonas aeruginosa)
[11] = (MRSE) Methicillin-resistant Staphylococcus epidermidis ATCC12228

C[C@H]1COc2c(N3CCN(C)CC3)c(F)cc3c(=O)c(C(=O)O)cn1c23 [Levofloxacin, levofloxacin, reference compound]
MIC ([1]; Escherichia coli, 08-5 (ESBLs) Extended Spectyumβ-lactamase): 76.9 µM (≈ 27.8 µg/mL)
MIC ([1]; Escherichia coli, 272(TEM-88)): < 0.7 µM
MIC ([1]; Escherichia coli, 274 (TEM-15)): 0.2 µM (≈ 0.0723 µg/mL)
MIC ([1]; Escherichia coli, 276 (TEM-52)): < 0.2 µM
MIC ([1]; Escherichia coli, ATCC25922, Escherichia coli ATCC 25922): 0.14 µM (≈ 0.0506 µg/mL)
MIC ([1]; Escherichia coli, strain 26 (listed under Escherichia coli)): < 0.7 µM
MIC ([2]; Pseudomonas aeruginosa, Pseudomonas aeruginosa TCC27853): 1.2 µM (≈ 0.434 µg/mL)
MIC ([2]; Pseudomonas aeruginosa, strain 17 (listed under Pseudomonas aeruginosa)): 0.7 µM (≈ 0.253 µg/mL)
MIC [3]: < 0.02 µM
MIC [4, 7]: 1.2 µM (≈ 0.434 µg/mL)
MIC [4, 8]: 55.5 µM (≈ 20.1 µg/mL)
MIC ([4]; ATCC 12228 / MRSE, (MRSE) Methicillin-resistant Staphylococcus epidermidis ATCC12228): 0.3 µM (≈ 0.108 µg/mL)

CC[C@@H](C)[C@@H](NC(=O)[C@@H](CCCCN)NC(=O)[C@@H](CO)NC(=O)[C@@H](Cc1ccccc1)NC(=O)[C@@H](CC(C)C)NC(=O)[C@@H](CCCCN)NC(=O)[C@@H](CCC(=O)O)NC(=O)[C@@H](CC(C)C)NC(=O)[C@@H](CCCNC(=N)N)NC(=O)[C@@H](CCCCN)NC(=O)[C@@H](Cc1ccccc1)NC(C)=O)C(=O)N[C@H](Cc1c[nH]c2ccccc12)C(=O)N[C@H](CC(N)=O)C(=O)N[C@H](Cc1c[nH]c2ccccc12)C(=O)N[C@H](CCCCN)C(N)=O [PL-17] (Ac-[dF][dK][dR][dL][dE][dK][dL][dF][dS][dK][dI][dW][dN][dW][dK]-NH2)
Minimal inhibitory concentration ([5]; JLC 30366 candida krusei): 8 mg/L (≈ 3.88 µM)
Minimal inhibitory concentration ([5]; JLC 30383 candida krusei): 8 mg/L (≈ 3.88 µM)
MIC ([1]; 272(TEM-88)): 0.3 µM (≈ 0.619 µg/mL)
MIC ([1]; 274 (TEM-15)): 0.3 µM (≈ 0.619 µg/mL)
MIC ([1]; 276 (TEM-52)): 0.7 µM (≈ 1.45 µg/mL)
MIC [2, 9]: 1.3 µM (≈ 2.68 µg/mL)
MIC [2, 10]: 2.7 µM (≈ 5.57 µg/mL)
MIC [3]: 0.3 µM (≈ 0.619 µg/mL)
MIC [4, 7]: 1.0 µM (≈ 2.06 µg/mL)
MIC [4, 8]: 1.0 µM (≈ 2.06 µg/mL)
MIC [4, 11]: 1.0 µM (≈ 2.06 µg/mL)

CC(=O)N[C@H](Cc1ccccc1)C(=O)N[C@H](CCCCN)C(=O)N[C@H](CCCCN)C(=O)N[C@H](CC(C)C)C(=O)N[C@H](CCCCN)C(=O)N[C@H](CCCCN)C(=O)N[C@H](CC(C)C)C(=O)N[C@H](Cc1ccccc1)C(=O)N[C@H](CO)C(=O)N[C@H](CCCCN)C(=O)N[C@H](CC(C)C)C(=O)N[C@H](Cc1c[nH]c2ccccc12)C(=O)N[C@H](CC(N)=O)C(=O)N[C@H](Cc1c[nH]c2ccccc12)C(=O)N[C@H](CCCCN)C(N)=O [PL-18] (Ac-[dF][dK][dK][dL][dK][dK][dL][dF][dS][dK][dL][dW][dN][dW][dK]-NH2)
tR(min) 5° C. [6]: 35.75 min
tR(min) 80° C. [6]: 33.37 min
PA (min), association parameter [6]: 0.56 min
tR(min) Max [6]: 35.75 min
ΔtR(X-Peptide C)(min) 5° C. [6]: 13.19 min
ΔtR(X-Peptide C)(min) 80° C. [6]: 13.45 min
Hydrophobicity tR5 [6]: 35.75 min
Hydrophobicity tR80 [6]: 33.37 min
Minimal inhibitory concentration [5]: 4 mg/L (≈ 1.97 µM)
MIC [3]: 1.3 µM (≈ 2.65 µg/mL)
MIC [4]: 0.7 µM (≈ 1.42 µg/mL)

CC(=O)N[C@H](Cc1ccccc1)C(=O)N[C@H](CCCCN)C(=O)N[C@H](CCCCN)C(=O)N[C@H](Cc1ccccc1)C(=O)N[C@H](CCCCN)C(=O)N[C@H](CCCCN)C(=O)N[C@H](CC(C)C)C(=O)N[C@H](CC(C)C)C(=O)N[C@H](CO)C(=O)N[C@H](CCCCN)C(=O)N[C@H](CC(C)C)C(=O)N[C@H](Cc1c[nH]c2ccccc12)C(=O)N[C@H](CC(N)=O)C(=O)N[C@H](Cc1c[nH]c2ccccc12)C(=O)N[C@H](CCCCN)C(N)=O [PL-43] (Ac-[dF][dK][dK][dF][dK][dK][dL][dL][dS][dK][dL][dW][dN][dW][dK]-NH2; N-terminus and C-terminus assumed)
tR(min) 5° C. [6]: 41.64 min
tR(min) 80° C. [6]: 40.52 min
PA (min), association parameter [6]: 1.65 min
tR(min) Max [6]: 41.97 min
ΔtR(X-Peptide C)(min) 5° C. [6]: 19.08 min
ΔtR(X-Peptide C)(min) 80° C. [6]: 20.60 min
Hydrophobicity tR5 [6]: 41.64 min
Hydrophobicity tR80 [6]: 40.52 min

Ac-FKKLKKLFSKLWNWK-NH2 [PL-13]
tR(min) 5° C. [6]: 35.75 min
tR(min) 80° C. [6]: 33.37 min
PA (min), association parameter [6]: 0.56 min
tR(min) Max [6]: 35.75 min
ΔtR(X-Peptide C)(min) 5° C. [6]: 13.19 min
ΔtR(X-Peptide C)(min) 80° C. [6]: 13.45 min
Hydrophobicity tR5 [6]: 35.75 min
Hydrophobicity tR80 [6]: 33.37 min
MIC ([1]; 08-5 (ESBLs) Extended Spectyumβ-lactamase): 0.7 µM
MIC [2]: 1.3 µM
MIC [3]: 0.7 µM

Ac-FKRLEKLFSKIWNWK-NH2 [PL-12]
Hydrophobicity tR5 [6]: 38.04 min
Hydrophobicity tR80 [6]: 36.10 min
Minimal inhibitory concentration ([5]; JLC 30366 candida krusei): 8 mg/L
Minimal inhibitory concentration ([5]; JLC 30383 candida krusei): 16 mg/L
MIC ([1]; 272(TEM-88)): 0.7 µM
MIC ([1]; 274 (TEM-15)): 1.3 µM
MIC ([1]; 276 (TEM-52)): 1.3 µM
MIC [2, 9]: 5.3 µM
MIC [2, 10]: 2.7 µM
MIC [3]: 1.7 µM
MIC [4, 7]: 2.7 µM
MIC [4, 8]: 1.3 µM
MIC [4, 11]: 1.3 µM
